Test results published in the PolyMetriX glass transition set.
± gives the standard deviation of the reports.

SMILES	glass transition temperature [°C]
*CC(*)(C)C(=O)OCC(C)(C)C1OCC(C)(C)CO1 (repeat unit)	118.00
*c1ccc(C(=O)NCCCCCCCCCCNC(=O)c2ccc(-c3nc4ccccc4nc3*)cc2)cc1 (repeat unit)	166.00
*O[Si](*)(c1ccccc1)c1ccc(OC(C)(C)C)cc1 (repeat unit)	56.00
*CCCCCCOC(=O)Nc1ccc(C)c(NC(=O)O*)c1 (repeat unit)	32.00
*Oc1ccc(OC(=O)c2cc(OCCCCCCCCCOCC3CCCN3c3ccc([N+](=O)[O-])cc3)c(C(*)=O)cc2OCCCCCCCCCOCC2CCCN2c2ccc([N+](=O)[O-])cc2)cc1 (repeat unit)	34.00
*Oc1ccc(Oc2ccc(C(=O)c3ccc(NC(=O)CCCCCCCCC(=O)Nc4ccc(C(=O)c5ccc(*)cc5)cc4)cc3)cc2)cc1 (repeat unit)	130.00
*CC(*)(C)C(=O)OCC1(C)COCOC1 (repeat unit)	142.00
*O[Si](C)(C)c1cccc2c([Si](*)(C)C)cccc12 (repeat unit)	62.00
*Oc1ccc(NC(=O)c2cc(C(=O)Nc3ccc(*)cc3)cc(C(F)(F)C(F)(F)C(F)(F)C(F)(F)F)c2)cc1 (repeat unit)	257.00
*CC(*)(C)C(=O)OC(C(F)(F)F)C(F)(F)F (repeat unit)	75.00
*CC(*)(C)c1ccccc1 (repeat unit) [poly(alpha-methylstyrene)]	168.00 ± 140
*CC(*)(C)C(=O)OCc1ccc(F)cc1F (repeat unit)	46.00
*Nc1ccc(NC(=O)c2ccc(NC(=O)CCCCCCCCCCC(=O)Nc3ccc(C(*)=O)cc3)cc2)cc1C(=O)OCCCCCCCCCCCC (repeat unit)	205.50
*c1ccc(Oc2cccc(-n3c(=O)c4cc5c(=O)n(-c6cccc(Oc7ccc(-c8nc9cc%10sc(*)nc%10cc9s8)cc7)c6)c(=O)c5cc4c3=O)c2)cc1 (repeat unit)	400.00
*CC(O)COc1ccc(C(C)(C)c2ccc(O*)c(Cl)c2)cc1Cl (repeat unit)	85.00
*OC(=O)C(Cc1ccccc1)NC(=O)CCCCCCC(=O)NC(Cc1ccccc1)C(=O)OC1COC2C(*)COC12 (repeat unit)	91.00
*Oc1ccc(C(=O)c2ccc(Oc3ccc4c(=O)n5c6cc(-c7ccc8c(c7)nc7c9ccc(*)c%10cccc(c(=O)n87)c%109)ccc6nc5c5cccc3c45)cc2)cc1 (repeat unit)	389.00
*CC(*)(F)C(=O)OCC(F)(F)C(F)(F)C(F)(F)C(F)(F)F (repeat unit)	63.00
*Oc1ccc(C(CC)(CC)c2ccc(OC(*)=S)cc2)cc1 (repeat unit)	121.00
*CC(*)OC(=O)CCCC1CCCCC1 (repeat unit)	-10.00
*CCCCCCCCOC(=O)Nc1ccc(NC(=O)OCCCCCCCCOc2ccc(-c3ccc(O*)cc3)cc2)c(C)c1 (repeat unit)	81.00
*C#Cc1cccc(C#C[SiH](*)c2ccccc2)c1 (repeat unit)	85.00

SMILES	glass transition temperature [°C]
*C(=O)Nc1ccc(Oc2ccccc2-c2ccccc2Oc2ccc(NC(=O)c3ccc4c(c3)C(=O)N(c3ccc(Oc5ccc(C(C)(C)c6ccc(Oc7ccc(N8C(=O)c9ccc(*)cc9C8=O)cc7)cc6)cc5)cc3)C4=O)cc2)cc1 (repeat unit)	229.00
*Oc1c(-c2ccccc2)cc(Cc2cc(-c3ccccc3)c(OC(=O)CCCCCC(*)=O)c(-c3ccccc3)c2)cc1-c1ccccc1 (repeat unit)	111.00
*c1ccc(Oc2ccc(Oc3ccc(NC(=O)c4ccc(Oc5cccc6c5C(=O)N(*)C6=O)cc4)cc3)cc2)cc1 (repeat unit)	244.00
*c1c(C)cc(-c2cc(C)c(N3C(=O)c4ccc(Oc5cc6ccccc6cc5Oc5ccc6c(c5)C(=O)N(*)C6=O)cc4C3=O)c(C)c2)cc1C (repeat unit)	308.00
*Oc1ccc(C(=O)Nc2ccc(C(c3ccc(NC(=O)c4ccc(OC(=O)c5cccc(C(*)=O)c5)cc4)cc3)(C(F)(F)F)C(F)(F)F)cc2)cc1 (repeat unit)	227.00
*C(=O)OCCOCCOCCOCCOC(=O)c1ccc(N2C(=O)c3ccc(*)cc3C2=O)cc1 (repeat unit)	52.00
*C(=O)Nc1c(CC)cc(Cc2cc(CC)c(NC(=O)c3ccc4c(c3)C(=O)N(c3ccc(/N=N/c5ccc(C)cc5)c(N5C(=O)c6ccc(*)cc6C5=O)c3)C4=O)c(CC)c2)cc1CC (repeat unit)	269.00
*OC(=O)c1cccc(C(*)=O)c1 (repeat unit)	130.00
*Nc1cc(NC(=O)c2ccc(C(*)=O)cc2)cc(-c2nnc(-c3ccccn3)o2)c1 (repeat unit)	230.00
*c1ccc(Oc2ccc(C(C)(C)c3ccccc3)cc2)c(N2C(=O)c3ccc(-c4ccc5c(c4)C(=O)N(*)C5=O)cc3C2=O)c1 (repeat unit)	275.00
*C(=O)N1C(=S)N(C(=O)c2ccc3c(c2)C(=O)N(c2ccc(Oc4ccc(N5C(=O)c6ccc(*)cc6C5=O)cc4)cc2)C3=O)C(C)=C(C(=O)OCC)C1c1ccc(OC)cc1OC (repeat unit)	165.00
*c1ccc(Oc2ccc(-c3cc(-c4ccccc4)c4cc(Oc5ccc6nc(*)c(-c7ccccc7)c(-c7ccccc7)c6c5)ccc4n3)cc2)cc1 (repeat unit)	305.00
*c1ccc(Oc2ccc(-n3c(=O)c4cc5c(=O)n(*)c(=O)c5cc4c3=O)cc2)cc1 (repeat unit)	385.00 ± 20
*CC(*)c1ccc2c(c1)OCO2 (repeat unit)	138.00
*c1ccc(-c2nc3cc(C)ccc3o2)c(*)c1 (repeat unit)	221.00
*CCCCCCCCCCC(=O)NCCCCCC(=O)N* (repeat unit)	25.50
*OC(COC(=O)C1=C(C(=O)OCC(COC(=O)C2=C(c3ccccc3)C3C=CC2C3)OC(=O)c2ccc(C(*)=O)cc2)C2C=CC1C2)COC(=O)C1=C(c2ccccc2)C2C=CC1C2 (repeat unit)	74.00
*C(=O)c1ccc2c(c1)C(=O)N(c1ccc(-c3ccc(N4C(=O)c5ccc(*)cc5C4=O)c(OCCCCCCOc4ccc(/C=C/c5ccc(F)cc5)cc4)c3)cc1OCCCCCCOc1ccc(/C=C/c3ccc(F)cc3)cc1)C2=O (repeat unit)	128.00
*CC(*)c1ccc(OCCOCCOC(C)=O)cc1 (repeat unit)	-3.00
*CC(=O)Nc1cccc(NC(=O)COc2ccc3ccccc3c2Sc2c(O*)ccc3ccccc23)c1 (repeat unit)	254.00
*Nc1ccc(C(C)(C)c2ccc(C(C)(C)c3ccc(Nc4ccc(C(O)(c5ccccc5)c5ccc(C(O)(c6ccccc6)c6ccc(*)cc6)cc5)cc4)cc3)cc2)cc1 (repeat unit)	177.00
*C1C(=O)N(CCCOc2ccc(-c3ccc(C#N)cc3)cc2)C(=O)C1* (repeat unit)	130.00

SMILES	glass transition temperature [°C]
*c1ccc2c(c1)C(=O)N(c1c(C)cc(C)c(N3C(=O)c4ccc(C(*)(C(F)(F)F)C(F)(F)F)cc4C3=O)c1C)C2=O (repeat unit)	377.00
*CCOCCOCCOC(=O)CCCCC(=O)O* (repeat unit)	-49.00
*c1ccc(C(c2ccc(OCCCC)cc2)c2ccc(N(*)c3ccc(C)cc3)cc2)cc1 (repeat unit)	170.00
*CCC(C)O[Si](C)(C)O* (repeat unit)	-88.00
*CCCCCCCNC(=O)C(OC)C(OC)C(=O)N* (repeat unit)	87.00
*c1ccc2c(c1)C(=O)N(c1cccc(Oc3ccc(N4C(=O)c5ccc(C(*)(C(F)(F)F)C(F)(F)F)cc5C4=O)cc3)c1)C2=O (repeat unit)	260.00
*c1cc(C(=O)OCC)cc(N2C(=O)CC(C3Cc4ccccc4C4C(=O)N(*)C(=O)C43)C2=O)c1 (repeat unit)	254.00
*CC(*)(C)C(=O)OCC(F)(F)F (repeat unit) [Poly(2,2,2-trifluoroethyl methacrylate)]	74.42 ± 0.8
*CC(C)(C)COC(=O)c1ccc(-c2ccc(-c3ccc(C(=O)O*)cc3)cc2)cc1 (repeat unit)	100.00
*c1cccc(-c2nc3cc(-c4ccc5nc(*)c(-c6ccccc6)nc5c4)ccc3nc2-c2ccccc2)c1 (repeat unit)	319.00
*CC(OCC(C)C)C1(C)C(=O)OC(=O)C1(*)C (repeat unit)	219.00
*CCCCCCCCCCCCOc1ccc(N(c2ccccc2)c2ccc(-c3ccc(N(c4ccccc4)c4ccc(O*)cc4)cc3)cc2)cc1 (repeat unit)	42.50
*Oc1ccc(S(=O)(=O)c2ccc(-c3ccc(S(=O)(=O)c4ccc(Oc5ccc(-c6ccc(-c7ccc(*)cc7)cc6)cc5)cc4)cc3)cc2)cc1 (repeat unit)	263.00
*CCCCCOc1ccc(OCCCCCc2nnc(-c3ccc(-c4nnc(*)o4)cc3)o2)c(C)c1 (repeat unit)	95.00
*C1C(=O)N(c2cc(Br)c(O[Si](c3ccccc3)(c3ccccc3)c3ccccc3)c(Br)c2)C(=O)C1* (repeat unit)	179.00
*c1ccc(S(=O)(=O)c2ccc(N3C(=O)c4ccc(Oc5ccc(Oc6ccc7c(c6)C(=O)N(*)C7=O)cc5)cc4C3=O)cc2)cc1 (repeat unit)	283.00
*CCN(*)C(=O)c1cc(F)c(F)c(F)c1 (repeat unit)	65.00
*/C(=C(/*)c1ccc(CCCC)cc1)c1ccccc1 (repeat unit)	200.00
*O[Si](C)(CCC(F)(F)F)O[Si](C)(CCC(F)(F)F)O[Si](C)(CCC(F)(F)F)CCC(F)(F)C(F)(F)C(F)(F)C(F)(F)C(F)(F)C(F)(F)CC[Si](*)(C)CCC(F)(F)F (repeat unit)	-43.00
*c1ccc(-c2ccc(-n3c(-c4ccc(Oc5ccc(C(=O)c6ccc(C(=O)c7ccc(Oc8ccc(-c9nc%10ccccc%10n9*)cc8)cc7)cc6)cc5)cc4)nc4ccccc43)cc2)cc1 (repeat unit)	259.00
